Measurements as given in US20230117324A1, “OXAZINE MONOACYLGLYCEROL LIPASE (MAGL) INHIBITORS” (Hoffmann-La Roche Inc., priority 2018, published 2023).
pIC50: −log10 of the molar value.

molecular target: T1, MAGL (recombinant wild-type) (Homo sapiens, UniProt Q99685); assay: MAGL inhibition, 4-NPA assay (hydrolysis of 4-nitrophenylacetate, absorbance at 405 nm); assay type: biochemical; conditions: 4-NPA assay (footnote [a]: values not marked [b])
T1 sequence (Q99685 1-303): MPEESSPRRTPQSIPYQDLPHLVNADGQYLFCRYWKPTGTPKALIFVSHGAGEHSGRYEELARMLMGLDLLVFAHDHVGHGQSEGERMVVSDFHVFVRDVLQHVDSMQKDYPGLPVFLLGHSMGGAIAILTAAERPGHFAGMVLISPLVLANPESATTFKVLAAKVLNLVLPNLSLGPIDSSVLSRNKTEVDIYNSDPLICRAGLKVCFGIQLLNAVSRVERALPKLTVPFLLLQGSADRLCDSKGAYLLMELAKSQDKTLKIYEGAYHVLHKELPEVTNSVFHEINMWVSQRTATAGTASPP
Protocol: Compounds were profiled for MAGL inhibitory activity by measuring the enzymatic activity of MAGL by following the hydrolysis of 4-nitrophenylacetate resulting in 4-nitrophenol, which absorbs at 405-412 nm (G. G. Muccioli, G. Labar, D. M. Lambert, Chem. Bio. Chem. 2008, 9, 2704-2710). This assay is hereinafter abbreviated “4-NPA assay”.
The assay was carried out in 384 well assay plates (black with clear bottom, non-binding surface treated, Corning Ref. 3655) in a total volume of 40 μL. Compound dilutions were made in 100% DMSO (VWR Chemicals 23500.297) in a polypropylene plate in 3-fold dilution steps to give a final concentration range in the assay from 25 μM to 1.7 nM. 1 μL compound dilutions (100% DMSO) were added to 19 μL MAGL (recombinant wild-type) in assay buffer (50 mM TRIS (GIBCO, 15567-027), 1 mM EDTA (Fluka, 03690-100 mL)). The plate was shaked for 1 min at 2000 rpm (Variomag Teleshake) and then incubated for 15 min at RT. To start the reaction, 20 μL 4-Nitrophenlyacetate (Sigma N-8130) in assay buffer with 6% EtOH was added. The final concentrations in the assay were 1 nM MAGL and 300 μM 4-Nitrophenylacetate. After shaking (1 min, 2000 rpm) and 5 min incubation at RT, the absorbance at 405 nm was measured for a first time (Molecular Devices, SpectraMax Paradigm). A second measurement was then done after incubation for 80 min at RT. From the two measurements, the slope was calculated by subtracting the first from the second measurement.

Compound | pIC50
Cn1cc(C2CCN(C(=O)N3CC[C@@H]4OCC(=O)N[C@@H]4C3)CC2)c2cc(Cl)ccc21 (racemic) [Example 3, rac-(4aR,8aS)-6-(4-(5-Chloro-1-methyl-1H-indol-3-yl)piperidine-1-carbonyl)hexahydro-2H-pyrido[4,3-b][1,4]oxazin-3(4H)-one] | 8.52
O=C1CO[C@H]2CCN(C(=O)N3CCC(C4c5ccccc5-c5ccccc54)CC3)C[C@H]2N1 (racemic) [Example 4, rac-(4aR,8aS)-6-(4-(9H-Fluoren-9-yl)piperidine-1-carbonyl)hexahydro-2H-pyrido[4,3-b][1,4]oxazin-3(4H)-one] | 8.30
COCCC(c1ccc(F)cc1)C1CCN(C(=O)N2CC[C@@H]3OCC(=O)N[C@@H]3C2)CC1 (mixture of isomers) [Example 6, rac-(4aR,8aS)-6-(4-(1-(4-Fluorophenyl)-3-methoxypropyl)piperidine-1-carbonyl)hexahydro-2H-pyrido[4,3-b][1,4]oxazin-3(4H)-one] | 7.82
O=C1CO[C@H]2CCN(C(=O)N3CCC(c4c[nH]c5cc(F)ccc45)CC3)C[C@H]2N1 (racemic) [Example 7, rac-(4aR,8aS)-6-[4-(6-Fluoro-1H-indol-3-yl)piperidine-1-carbonyl]-4,4a,5,7,8,8a-hexahydropyrido[4,3-b][1,4]oxazin-3-one] | 7.37
COC(c1ccc(F)cc1)C1CCN(C(=O)N2CC[C@@H]3OCC(=O)N[C@@H]3C2)CC1 (mixture of isomers) [Example 8, rac-(4aR,8aS)-6-(4-((4-Fluorophenyl)(methoxy)methyl)piperidine-1-carbonyl)hexahydro-2H-pyrido[4,3-b][1,4]oxazin-3(4H)-one] | 7.04
O=C1CO[C@H]2CCN(C(=O)N3CCC(c4noc5ccc(F)cc45)CC3)C[C@H]2N1 (racemic) [Example 9, rac-(4aR,8aS)-6-(4-(5-Fluorobenzo[d]isoxazol-3-yl)piperidine-1-carbonyl)hexahydro-2H-pyrido[4,3-b][1,4]oxazin-3(4H)-one] | 6.19
O=C1CO[C@H]2CCN(C(=O)N3CCN([C@H](c4ccccc4)c4ccc(Cl)cc4)CC3)C[C@H]2N1 (racemic) [Example 10, rac-(4aR,8aS)-6-(4-(rac-(4-Chlorophenyl)(phenyl)methyl)piperazine-1-carbonyl)hexahydro-2H-pyrido[4,3-b][1,4]oxazin-3(4H)-one] | 8.30
O=C1CO[C@H]2CCN(C(=O)N3CCN(C(c4ccc(F)cc4)c4ccc(F)cc4)CC3)C[C@H]2N1 (racemic) [Example 12, rac-(4aR,8aS)-6-[4-[bis(4-Fluorophenyl)methyl]piperazine-1-carbonyl]-4,4a,5,7,8,8a-hexahydropyrido[4,3-b][1,4]oxazin-3-one] | 7.92
O=C1CO[C@H]2CCN(C(=O)N3CCN(c4c[nH]c5ccc(Cl)cc45)CC3)C[C@H]2N1 (racemic) [Example 14, rac-(4aR,8aS)-6-(4-(5-Chloro-1H-indol-3-yl)piperazine-1-carbonyl)hexahydro-2H-pyrido[4,3-b][1,4]oxazin-3(4H)-one] | 6.88
CC(c1ccccc1)N1CCN(C(=O)N2CC[C@@H]3OCC(=O)N[C@@H]3C2)CC1 (mixture of isomers) [Example 15, rac-(4aR,8aS)-6-(4-(1-Phenylethyl)piperazine-1-carbonyl)hexahydro-2H-pyrido[4,3-b][1,4]oxazin-3(4H)-one] | 5.52
Cn1ncc2cc(C3CCN(C(=O)N4CC[C@@H]5OCC(=O)N[C@@H]5C4)CC3)ccc21 (racemic) [Example 16, rac-(4aR,8aS)-6-(4-(1-Methyl-1H-indazol-5-yl)piperidine-1-carbonyl)hexahydro-2H-pyrido[4,3-b][1,4]oxazin-3(4H)-one] | 5.82
O=C1CO[C@@H]2CCN(C(=O)N3CCN([C@@H](c4ccccc4)c4ccc(F)cc4)CC3)C[C@@H]2N1 (racemic) [Example 17, rac-(4aR,8aS)-6-[4-[rac-(4-Fluorophenyl)-phenylmethyl]piperazine-1-carbonyl]-4,4a,5,7,8,8a-hexahydropyrido[4,3-b][1,4]oxazin-3-one] | 8.22
N#C/C(=C\N1CCN(C(=O)N2CC[C@@H]3OCC(=O)N[C@@H]3C2)CC1)c1ccccc1 (racemic) [Example 18, (E/Z)-3-[4-[rac-(4aS,8aR)-3-oxo-4,4a,5,7,8,8a-hexahydropyrido[4,3-b][1,4]oxazine-6-carbonyl]piperazin-1-yl]-2-phenylprop-2-enenitrile] | 5.68
O=C1CO[C@H]2CCN(C(=O)N3CCC(c4cn(C(CO)CCl)c5ccc(Cl)cc45)CC3)C[C@H]2N1 (mixture of isomers) [Example 20, rac-(4aR,8aS)-6-(4-(5-Chloro-1-(1-chloro-3-hydroxypropan-2-yl)-1H-indol-3-yl)piperidine-1-carbonyl)hexahydro-2H-pyrido[4,3-b][1,4]oxazin-3(4H)-one] | 8.70
O=C1CO[C@H]2CCN(C(=O)N3CCC(C(CCO)c4ccc(F)cc4)CC3)C[C@H]2N1 (mixture of isomers) [Example 26, rac-cis-6-(4-(1-(4-Fluorophenyl)-3-hydroxypropyl)piperidine-1-carbonyl)hexahydro-2H-pyrido[4,3-b][1,4]oxazin-3(4H)-one] | 7.48
CC(c1ccc(C(F)(F)F)cc1)C1CCN(C(=O)N2CC[C@@H]3OCC(=O)N[C@@H]3C2)CC1 (mixture of isomers) [Example 27, (4aR,8aS)-6-(4-(1-(4-(Trifluoromethyl)phenyl)ethyl)piperidine-1-carbonyl)hexahydro-2H-pyrido[4,3-b][1,4]oxazin-3(4H)-one] | 8.30
CC(Oc1ccc(F)cc1Cl)C1CCN(C(=O)N2CC[C@@H]3OCC(=O)N[C@@H]3C2)CC1 (mixture of isomers) [Example 28, rac-(4aR,8aS)-6-(4-(1-(2-Chloro-4-fluorophenoxy)ethyl)piperidine-1-carbonyl)hexahydro-2H-pyrido[4,3-b][1,4]oxazin-3(4H)-one] | 8.70
O=C1CO[C@H]2CCN(C(=O)N3CCC(c4c[nH]c5cc(F)ccc45)CC3)C[C@H]2N1 (relative stereo) [Example 5, (+)-cis-6-[4-(6-Fluoro-1H-indol-3-yl)piperidine-1-carbonyl]-4,4a,5,7,8,8a-hexahydropyrido[4,3-b][1,4]oxazin-3-one] | 7.85
O=C1CO[C@H]2CCN(C(=O)N3CCN(C(c4ccc(F)cc4)c4ccc(F)cc4)CC3)C[C@H]2N1 (relative stereo) [Example 11, (+)-cis-6-(4-(bis(4-Fluorophenyl)methyl)piperazine-1-carbonyl)hexahydro-2H-pyrido[4,3-b][1,4]oxazin-3(4H)-one] | 8.10
O=C1CO[C@H]2CCN(C(=O)N3CCC(c4cn(C5COC5)c5ccc(Cl)cc45)CC3)C[C@H]2N1 (relative stereo) [Example 22, (+)- or (−)-cis-6-(4-(5-Chloro-1-(oxetan-3-yl)-1H-indol-3-yl)piperidine-1-carbonyl)hexahydro-2H-pyrido[4,3-b][1,4]oxazin-3(4H)-one] | 8.70
O=C1CO[C@H]2CCN(C(=O)N3CCC(c4cn(C5CC5)c5ccc(Cl)cc45)CC3)C[C@H]2N1 (single isomer, unassigned) [Example 19, (+)-or (−)-cis-6-(4-(5-Chloro-1-cyclopropyl-1H-indol-3-yl)piperidine-1-carbonyl)hexahydro-2H-pyrido[4,3-b][1,4]oxazin-3(4H)-one] | 9.00
O=C1CO[C@H]2CCN(C(=O)N3CCC(C(c4ccc(F)cc4)c4ccc(F)cc4)CC3)C[C@H]2N1 (single isomer, unassigned) [Example 21, (+)-or (−)-cis-6-(4-(bis(4-Fluorophenyl)methyl)piperidine-1-carbonyl)hexahydro-2H-pyrido[4,3-b][1,4]oxazin-3(4H)-one] | 9.00
O=C1CO[C@H]2CCN(C(=O)N3CCC(c4cn(CC5COC5)c5ccc(Cl)cc45)CC3)C[C@H]2N1 (single isomer, unassigned) [Example 23, (+)-or (−)-cis-6-(4-(5-Chloro-1-(oxetan-3-ylmethyl)-1H-indol-3-yl)piperidine-1-carbonyl)hexahydro-2H-pyrido[4,3-b][1,4]oxazin-3(4H)-one] | 8.52
CC(C)(C)[Si](C)(C)OCCn1cc(C2CCN(C(=O)N3CC[C@@H]4OCC(=O)N[C@@H]4C3)CC2)c2cc(Cl)ccc21 (single isomer, unassigned) [Example 24, (+)-or (−)-cis-6-(4-(1-(2-((tert-Butyldimethylsilyl)oxy)ethyl)-5-chloro-1H-indol-3-yl)piperidine-1-carbonyl)hexahydro-2H-pyrido[4,3-b][1,4]oxazin-3(4H)-one] | 9.15
